Calls of active or inactive are those of the source. The calls are words filed in the database; no cut-off is given here.

Assay [1] deals with HUVEC. Nature of the assay: Cytotoxicity against HUVEC cells. Conditions: Homo sapiens.
Assay [2] concerns the target Vascular endothelial growth factor receptor 2 (Homo sapiens, UniProt P35968). Nature of the assay: Inhibition of VEGFR2 (unknown origin).
For assay [3], the system named is A549. As to the kind of experiment: Antiproliferative activity against human A549 cells incubated for 72 hrs. Conditions: A549, 72 h.
Assay [4] has as its system WI-38. Nature of the assay: Antiproliferative activity against human WI-38 cells incubated for 72 hrs. The conditions noted are these: WI-38, 72 h.
For assay [5], the system named is MCF7. As to the kind of experiment: Antiproliferative activity against human MCF7 cells incubated for 72 hrs. The conditions noted are these: MCF7, 72 h.
Assay [6] has as its system HT-29. Nature of the assay: Antiproliferative activity against human HT-29 cells incubated for 72 hrs. The conditions noted are these: HT-29, 72 h.
The test system of assay [7] is PC-3. As to the kind of experiment: Antiproliferative activity against human PC-3 cells incubated for 72 hrs. Conditions: PC-3, 72 h.
Assay [8] has as its system HepG2. Nature of the assay: Antiproliferative activity against human HepG2 cells incubated for 72 hrs. Conditions: HepG2, 72 h.
The test system of assay [9] is HT-29. Nature of the assay: Induction of apoptosis in human HT-29 cells assessed as increase in total apoptotic cells measured after 24 hrs by flow cytometry. Type of assay: functional, cell-based.
Assay [10] has as its system HT-29. Nature of the assay: Induction of cell cycle arrest in human HT-29 cells assessed as accumulation of cells at G2/M phase at IC50 measured after 24 hrs by flow cytometry. The assay is classed as functional, cell-based. Background: Flow cytometry measures light scatter and fluorescence of single cells or particles in a stream.

Sequence of Vascular endothelial growth factor receptor 2 (P35968 whole entry): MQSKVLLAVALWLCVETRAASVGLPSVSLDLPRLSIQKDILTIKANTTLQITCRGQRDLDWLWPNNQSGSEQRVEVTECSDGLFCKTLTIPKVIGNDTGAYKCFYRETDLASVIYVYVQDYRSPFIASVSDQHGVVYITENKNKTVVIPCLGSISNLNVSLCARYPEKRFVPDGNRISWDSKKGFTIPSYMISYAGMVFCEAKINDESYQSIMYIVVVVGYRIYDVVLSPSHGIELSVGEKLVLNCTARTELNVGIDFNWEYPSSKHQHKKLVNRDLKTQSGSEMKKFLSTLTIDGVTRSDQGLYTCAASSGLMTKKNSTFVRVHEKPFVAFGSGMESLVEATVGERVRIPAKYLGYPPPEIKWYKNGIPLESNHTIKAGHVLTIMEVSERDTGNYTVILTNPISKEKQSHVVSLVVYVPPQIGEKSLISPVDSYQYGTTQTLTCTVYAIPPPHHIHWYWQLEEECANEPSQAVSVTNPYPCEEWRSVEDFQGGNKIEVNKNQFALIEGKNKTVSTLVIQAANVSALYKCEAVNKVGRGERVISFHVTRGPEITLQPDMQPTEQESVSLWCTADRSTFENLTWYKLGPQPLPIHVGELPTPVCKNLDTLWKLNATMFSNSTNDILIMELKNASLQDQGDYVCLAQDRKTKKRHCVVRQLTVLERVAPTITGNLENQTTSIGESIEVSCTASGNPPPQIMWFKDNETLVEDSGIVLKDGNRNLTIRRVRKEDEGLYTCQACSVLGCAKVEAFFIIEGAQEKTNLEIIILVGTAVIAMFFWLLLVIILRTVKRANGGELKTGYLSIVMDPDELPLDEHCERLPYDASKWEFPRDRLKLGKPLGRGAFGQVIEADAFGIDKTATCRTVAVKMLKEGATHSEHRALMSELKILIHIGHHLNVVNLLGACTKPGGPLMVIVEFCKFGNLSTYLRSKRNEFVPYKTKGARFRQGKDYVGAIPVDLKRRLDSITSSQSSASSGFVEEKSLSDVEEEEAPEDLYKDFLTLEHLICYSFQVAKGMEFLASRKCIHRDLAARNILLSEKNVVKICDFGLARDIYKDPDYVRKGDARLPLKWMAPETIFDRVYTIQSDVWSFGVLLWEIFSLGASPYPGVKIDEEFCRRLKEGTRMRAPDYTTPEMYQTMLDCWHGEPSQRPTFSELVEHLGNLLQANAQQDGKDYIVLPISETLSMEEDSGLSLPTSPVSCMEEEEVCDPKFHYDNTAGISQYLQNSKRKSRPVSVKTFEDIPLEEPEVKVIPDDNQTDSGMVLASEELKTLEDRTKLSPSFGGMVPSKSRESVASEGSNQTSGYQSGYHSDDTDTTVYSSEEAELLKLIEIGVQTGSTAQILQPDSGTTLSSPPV

`COc1ccc(-c2nc3c4cc(-c5ccc(OC)cc5)oc4ncn3n2)cc1` gave an IC50 in assay [1] of 22.6 µM. This lies in the double-digit micromolar range.

The compound `N=c1c2cc(-c3ccccc3)oc2ncn1/N=C/c1ccc(Br)cc1` came in with an IC50 in assay [1] of 61.2 µM.

As to `Cc1ccc(-c2nc3c4c(-c5ccccc5)c(-c5ccccc5)oc4ncn3n2)cc1`, the IC50 in [2] is 0.125 µM. This counts as sub-micromolar.

`Cc1cccc(-c2nc3c4c(-c5ccccc5)c(-c5ccccc5)oc4ncn3n2)c1`: the half-maximal inhibitory concentration (IC50) in assay [2] is 0.121 µM.

In the case of `N#Cc1c(N=CNc2ccc(Br)cc2)oc(-c2ccccc2)c1-c1ccccc1`, the IC50 was 10.1 µM in [3]; 27.4 µM in assay [4]; 9.06 µM in [5]; 12.1 µM in assay [6]; 23.2 µM in [7]; 11.2 µM in [8].

Regarding `N#Cc1c(N=CNc2ccc(Cl)cc2)oc(-c2ccccc2)c1-c1ccccc1`, the IC50 turned out to be 6.66 µM in assay [3]; 30 µM in assay [4]; 6.72 µM in assay [5]; 8.51 µM in [6]; 14.5 µM in [7]; 7.28 µM in [8]. Moreover, the result in assay [9] and in assay [10] was Active.

With `O=C(Nc1ncnc2oc(-c3ccccc3)c(-c3ccccc3)c12)c1ccc([N+](=O)[O-])cc1`, the IC50 amounted to 14.5 µM in assay [3]; 26.5 µM in assay [4]; 11.4 µM in assay [5]; 21.4 µM in assay [6]; 22.1 µM in [7]; 13.1 µM in assay [8].

In general, IC50 refers to the concentration needed to halve the response being measured.

The values above are taken from ChEMBL document CHEMBL6074700, “Furan- and Furopyrimidine-Based Derivatives: Synthesis, VEGFR-2 Inhibition, and In Vitro Cytotoxicity” (ACS Med Chem Lett, 2024).
